Key:
Test in all cases: Transient transfection (transactivation) assay in CV-1 cells, GAL4-PPAR chimera, luciferase reporter
Format in all cases: cell-based
PPAR gamma = target: T1, PPAR gamma (Homo sapiens, UniProt P37231)
T1 construct: expressed in transfected cells; host or cells: CV-1 cells
T1 sequence (P37231 238-503 limits assumed): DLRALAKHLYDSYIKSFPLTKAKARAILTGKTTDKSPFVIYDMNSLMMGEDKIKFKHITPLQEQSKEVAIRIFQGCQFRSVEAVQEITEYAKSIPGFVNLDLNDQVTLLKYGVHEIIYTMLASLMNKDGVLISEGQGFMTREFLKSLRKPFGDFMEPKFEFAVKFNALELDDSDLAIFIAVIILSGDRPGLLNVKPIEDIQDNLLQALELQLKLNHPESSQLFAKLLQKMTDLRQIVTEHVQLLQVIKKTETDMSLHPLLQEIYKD

PPAR alpha = target: T2, PPAR alpha (Homo sapiens, UniProt Q07869)
T2 construct: expressed in transfected cells; host or cells: CV-1 cells
T2 sequence (Q07869 239-466 limits assumed): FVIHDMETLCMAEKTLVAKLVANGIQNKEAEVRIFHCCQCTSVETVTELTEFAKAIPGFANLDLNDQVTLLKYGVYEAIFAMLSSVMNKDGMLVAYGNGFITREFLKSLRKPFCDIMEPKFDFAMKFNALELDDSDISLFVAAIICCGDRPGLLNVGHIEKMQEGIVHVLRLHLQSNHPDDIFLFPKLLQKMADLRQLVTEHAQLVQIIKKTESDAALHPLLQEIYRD
From the text: Compounds may be screened for functional potency in transient transfection assays in CV-1 cells or other cell types for their ability to activate the PPAR subtypes (transactivation assay). A previously established chimeric receptor system was utilized to allow comparison of the relative transcriptional activity of the receptor subtypes on the same synthetic response element and to prevent endogenous receptor activation from complicating the interpretation of results. See, for example; Lehmann, J. M.; Moore, L. B.; Smith-Oliver, T. A; Wilkinson, W. O.; Willson, T. M.; Kliewer, S. A., An antidiabetic thiazolidinedione is a high affinity ligand for peroxisome proliferatur-activated receptor γ (PPARγ), J. Biol. Chem., 1995, 270, 12953-6. The ligand binding domains for murine and human PPAR-alpha, PPAR-gamma, and PPAR-delta are each fused to the yeast transcription factor GAL4 DNA binding domain. CV-1 cells were transiently transfected with expression vectors for the respective PPAR chimera along with a reporter construct containing four or five copies of the GAL4 DNA binding site driving expression of luciferase. After 8-16 h, the cells are replated into multi-well assay plates and the media is exchanged to phenol-red free DME medium supplemented with 5% delipidated calf serum. 4 hours after replating, cells were treated with either compounds or 1% DMSO for 20-24 hours. Luciferase activity was then assayed with Britelite (Perkin Elmer) following the manufacturer's protocol and measured with either the Perkin Elmer Viewlux or Molecular Devices Acquest Xsee, for example, Kliewer, S. A., et. al. Cell 1995, 83, 813-819). Rosiglitazone is used as a positive control in the hPPAR-γ assay. Wy-14643 and GW7647 is used as a positive control in the hPPAR-α assay. GW501516 is used as the positive control in the hPPAR-δ assay.
Compounds of Examples 1-233 were assayed to measure their biological activity with respect to their EC50 values and efficacy for modulating PPAR-alpha, PPAR-gamma, and PPAR-delta as set forth in Table 3.

PPAR delta = target: T3, PPAR delta (Homo sapiens, UniProt Q03181)
T3 construct: expressed in transfected cells; host or cells: CV-1 cells
T3 sequence (Q03181 211-439 limits assumed): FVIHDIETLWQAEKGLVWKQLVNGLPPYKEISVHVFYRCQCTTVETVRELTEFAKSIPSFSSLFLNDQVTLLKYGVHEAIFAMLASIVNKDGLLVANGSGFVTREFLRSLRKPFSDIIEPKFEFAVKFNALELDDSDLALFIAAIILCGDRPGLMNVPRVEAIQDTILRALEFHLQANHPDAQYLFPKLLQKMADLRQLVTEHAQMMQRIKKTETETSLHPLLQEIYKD

In the case of `Cc1ccc(S(=O)(=O)N2C[C@H](C)N(c3ccc(C(F)(F)F)cn3)C[C@H]2C)cc1CC(=O)O` (mixture of isomers) [Example 21, SR and RS-{5-[2,5-Dimethyl-4-(5-trifluoromethyl-pyridin-2-yl)-piperazine-1-sulfonyl]-2-methyl-phenyl}-acetic acid], the EC50 (PPAR gamma) is reported as 5 to 100 µM, the EC50 (PPAR alpha) is reported as > 100 µM and the EC50 (PPAR delta) is reported as < 5 µM.

In the case of `Cc1ccc(S(=O)(=O)N2CCN(c3ccc(C(F)(F)F)cn3)[C@@H](C)[C@H]2C)cc1CC(=O)O` (mixture of isomers) [Example 104, RS and SR-{5-[2,3-Dimethyl-4-(5-trifluoromethyl-pyridin-2-yl)-piperazine-1-sulfonyl]-2-methyl-phenyl}-acetic acid], the EC50 (PPAR gamma) is reported as < 5 µM, the EC50 (PPAR alpha) is reported as 5 to 100 µM and the EC50 (PPAR delta) is reported as < 5 µM.

For `Cc1cc(CC(=O)O)cc(S(=O)(=O)N2CCN(c3ccc(C(F)(F)F)cn3)[C@@H](C)[C@H]2C)c1` (mixture of isomers) [Example 106, RS and SR-{3-[2,3-Dimethyl-4-(5-trifluoromethyl-pyridin-2-yl)-piperazine-1-sulfonyl]-5-methyl-phenyl}-acetic acid], the EC50 (PPAR gamma) was > 100 µM, the EC50 (PPAR alpha) was > 100 µM and the EC50 (PPAR delta) was < 5 µM.

With `C[C@@H]1[C@H](C)N(c2ccc(C(F)(F)F)cn2)CCN1S(=O)(=O)c1cccc(CC(=O)O)c1` (racemic) [Example 105, RS and SR-{3-[2,3-Dimethyl-4-(S-trifluoromethyl-pyridin-2-yl)-piperazine-1-sulfonyl]-phenyl}-acetic acid] the EC50 (PPAR gamma) was < 5 µM, the EC50 (PPAR alpha) was > 100 µM and the EC50 (PPAR delta) was < 5 µM.

With `Cc1ccc(S(=O)(=O)N2CCN(c3ccc(C(F)(F)F)cn3)[C@H](C)C2)cc1CC(=O)O` (single isomer, unassigned) [Example 69] the EC50 (PPAR gamma) was < 5 µM, the EC50 (PPAR alpha) was 5 to 100 µM and the EC50 (PPAR delta) was < 5 µM.

`Cc1ccc(CC(=O)O)cc1S(=O)(=O)N1CCC(c2ccc(Cl)cc2)CC1` [Example 1] was tested, and the EC50 (PPAR gamma) was > 100 µM, the EC50 (PPAR alpha) was > 100 µM and the EC50 (PPAR delta) was < 5 µM.

`Cc1ccc(S(=O)(=O)N2CCC(c3ccc(Cl)cc3)CC2)cc1CC(=O)O` [Example 2, {5-[4-(4-Chlorophenyl)-piperidine-1-sulfonyl]-2-methyl-phenyl}-acetic acid] was tested, and the EC50 (PPAR gamma) was > 100 µM, the EC50 (PPAR alpha) was > 100 µM and the EC50 (PPAR delta) was 5 to 100 µM.

With `O=C(O)Cc1cccc(S(=O)(=O)N2CCN(c3ccc(C(F)(F)F)cc3)CC2)c1` [Example 3, {3-[4-(4-Trifluoromethyl-phenyl)-piperazine-1-sulfonyl]-phenyl}-acetic acid] the EC50 (PPAR gamma) was 5 to 100 µM, the EC50 (PPAR alpha) was 5 to 100 µM and the EC50 (PPAR delta) was < 5 µM.

`O=C(O)Cc1cccc(S(=O)(=O)N2CCN(c3ccc(C(F)(F)F)cn3)CC2)c1` [Example 4, {3-[4-(5-Trifluoromethyl-pyridin-2-yl)-piperazine-1-sulfonyl]-phenyl}-acetic acid] was tested, and the EC50 (PPAR gamma) was 5 to 100 µM, the EC50 (PPAR alpha) was 5 to 100 µM and the EC50 (PPAR delta) was < 5 µM.

With `Cc1ccc(S(=O)(=O)N2CCCN(c3ccc(C(F)(F)F)cc3)CC2)cc1CC(=O)O` [Example 5, {2-Methyl-5-[4-(4-trifluoromethyl-phenyl)-[1,4]diazepane-1-sulfonyl]-phenyl}-acetic acid] the EC50 (PPAR gamma) was 5 to 100 µM, the EC50 (PPAR alpha) was > 100 µM and the EC50 (PPAR delta) was < 5 µM.

In the case of `Cc1ccc(S(=O)(=O)N2CCN(c3ccc(C(F)(F)F)cn3)CC2C(C)C)cc1CC(=O)O` (stereo not drawn) [Example 6, {5-[2-Isopropyl-4-(5-trifluoromethyl-pyridin-2-yl)-piperazine-1-sulfonyl]-2-methyl-phenyl}-acetic acid], the EC50 (PPAR gamma) is reported as 5 to 100 µM, the EC50 (PPAR alpha) is reported as 5 to 100 µM and the EC50 (PPAR delta) is reported as < 5 µM.

In the case of `CCC1CN(c2ccc(C(F)(F)F)cn2)CCN1S(=O)(=O)c1ccc(C)c(CC(=O)O)c1` (stereo not drawn) [Example 7, {5-[2-Ethyl-4-(5-trifluoromethyl-pyridin-2-yl)-piperazine-1-sulfonyl]-2-methyl-phenyl)-acetic acid], the EC50 (PPAR gamma) is reported as 5 to 100 µM, the EC50 (PPAR alpha) is reported as 5 to 100 µM and the EC50 (PPAR delta) is reported as < 5 µM.

In the case of `Cc1ccc(S(=O)(=O)N2CCCN(c3ccc(C(F)(F)F)cn3)CC2)cc1CC(=O)O` [Example 8, {2-Methyl-5-[4-(5-trifluoromethyl-pyridin-2-yl)-[1,4]diazepane-1-sulfonyl]-phenyl}-acetic acid], the EC50 (PPAR gamma) is reported as < 5 µM, the EC50 (PPAR alpha) is reported as 5 to 100 µM and the EC50 (PPAR delta) is reported as < 5 µM.

In the case of `Cc1ccc(S(=O)(=O)N2CCCN(c3ncc(C(F)(F)F)cc3Cl)CC2)cc1CC(=O)O` [Example 9], the EC50 (PPAR gamma) is reported as < 5 µM, the EC50 (PPAR alpha) is reported as < 5 µM and the EC50 (PPAR delta) is reported as < 5 µM.

With `Cc1ccc(S(=O)(=O)N2C[C@@H]3C[C@H]2CN3c2cccc(F)c2)cc1CC(=O)O` [Example 10, S,S-{5-[4-(3-Fluorophenyl)-2,5-diaza-bicyclo[2.2.1]heptane-1-sulfonyl]-2-methyl-phenyl}acetic acid] the EC50 (PPAR gamma) was > 100 µM, the EC50 (PPAR alpha) was > 100 µM and the EC50 (PPAR delta) was 5 to 100 µM.

For `Cc1ccc(S(=O)(=O)N2C[C@@H]3C[C@H]2CN3c2ccc(F)cc2)cc1CC(=O)O` [Example 11], the EC50 (PPAR gamma) was > 100 µM, the EC50 (PPAR alpha) was > 100 µM and the EC50 (PPAR delta) was 5 to 100 µM.

With `Cc1ccc(S(=O)(=O)N2CCCN(c3ncccc3C(F)(F)F)CC2)cc1CC(=O)O` [Example 12, {2-Methyl-5-[4-(3-trifluoromethyl-pyridin-2-yl)-[1,4]diazepane-1-sulfonyl]-phenyl}-acetic acid] the EC50 (PPAR gamma) was 5 to 100 µM, the EC50 (PPAR alpha) was > 100 µM and the EC50 (PPAR delta) was 5 to 100 µM.

In the case of `Cc1ccc(S(=O)(=O)N2CCCN(c3ccncc3)CC2)cc1CC(=O)O` [Example 13], the EC50 (PPAR gamma) is reported as > 100 µM, the EC50 (PPAR alpha) is reported as > 100 µM and the EC50 (PPAR delta) is reported as 5 to 100 µM.

For `Cc1ccc(S(=O)(=O)N2CCCC(c3ccc(C(F)(F)F)cc3)C2)cc1CC(=O)O` (stereo not drawn) [Example 15, {2-Methyl-5-[3-(4-trifluoromethyl-phenyl)-piperidine-1-sulfonyl]-phenyl}-acetic acid], the EC50 (PPAR gamma) was 5 to 100 µM, the EC50 (PPAR alpha) was 5 to 100 µM and the EC50 (PPAR delta) was < 5 µM.

With `Cc1ccc(S(=O)(=O)N2CCCC(c3cccc(C(F)(F)F)c3)C2)cc1CC(=O)O` (stereo not drawn) [Example 16, {2-Methyl-5-[3-(3-trifluoromethyl-phenyl)-piperidine-1-sulfonyl]-phenyl}-acetic acid] the EC50 (PPAR gamma) was < 5 µM, the EC50 (PPAR alpha) was > 100 µM and the EC50 (PPAR delta) was 5 to 100 µM.

With `Cc1ccc(S(=O)(=O)N2CCN(c3nc4ccccc4o3)CC2)cc1CC(=O)O` [Example 17, [5-(4-Benzoxazol-2-yl-piperazine-1-sulfonyl)-2-methyl-phenyl]-acetic acid] the EC50 (PPAR gamma) was 5 to 100 µM, the EC50 (PPAR alpha) was 5 to 100 µM and the EC50 (PPAR delta) was < 5 µM.

For `Cc1ccc(S(=O)(=O)N2CCN(c3nc4ccccc4s3)CC2)cc1CC(=O)O` [Example 18, [5-(4-Benzothiazol-2-yl-piperazine-1-sulfonyl)-2-methyl-phenyl]-acetic acid], the EC50 (PPAR gamma) was < 5 µM, the EC50 (PPAR alpha) was < 5 µM and the EC50 (PPAR delta) was < 5 µM.

For `Cc1ccc(S(=O)(=O)N2CCN(c3ccc(C(F)(F)F)cn3)CC2C)cc1CC(=O)O` (stereo not drawn) [Example 19], the EC50 (PPAR gamma) was 5 to 100 µM, the EC50 (PPAR alpha) was 5 to 100 µM and the EC50 (PPAR delta) was < 5 µM.

With `Cc1ccc(S(=O)(=O)N2[C@H](C)CN(c3ccc(C(F)(F)F)cn3)C[C@@H]2C)cc1CC(=O)O` [Example 20, {5-[2,6-Dimethyl-4-(5-trifluoromethyl-pyridin-2-yl)-piperazine-1-sulfonyl]-2-methyl-phenyl}-acetic acid] the EC50 (PPAR gamma) was > 100 µM, the EC50 (PPAR alpha) was > 100 µM and the EC50 (PPAR delta) was < 5 µM.

`Cc1cc(CC(=O)O)cc(S(=O)(=O)N2CCN(c3ncc(C(F)(F)F)cc3Cl)CC2)c1` [Example 22, {5-Methyl-3-[4-(3-chloro-5-trifluoromethyl-pyridin-2-yl)-piperazine-1-sulfonyl]-phenyl)-acetic acid] was tested, and the EC50 (PPAR gamma) was < 5 µM, the EC50 (PPAR alpha) was 5 to 100 µM and the EC50 (PPAR delta) was < 5 µM.

— patent US20050234046A1 (Kalypsys, Inc., priority 2004, published 2005)
